In brackets after ≈: the same amount, converted by molar mass. Activity calls are given as the source filed them. The rule behind the calls is not given here.
How the values were obtained:
Candida tropicalis = assay: Antifungal activity against Candida tropicalis ATCC 1369 assessed as reduction in fungal growth by CLSI protocol based broth microdilution method; type: functional
Cryptococcus neoformans = assay: Antifungal activity against Cryptococcus neoformans ATCC 32045 assessed as reduction in fungal growth by CLSI protocol based broth microdilution method; type: functional
Candida albicans [1] = assay: Antifungal activity against Candida albicans ATCC 10231 assessed as reduction in fungal growth by CLSI protocol based broth microdilution method; type: functional
Aspergillus fumigatus = assay: Antifungal activity against Aspergillus fumigatus AS 3.3913 assessed as reduction in fungal growth by CLSI protocol based broth microdilution method; type: functional
Candida albicans [2] = assay: Antifungal activity against Candida albicans ATCC 10231 assessed as resistance development by measuring increase in MIC at 0.5 ug/ml after 20 passages by CLSI protocol based broth microdilution method; type: functional; conditions: dose 0.5 µg/ml
[3] = Selectivity index, ration of CC50 for cytotoxicity against human HUVEC cells to MIC for antifungal activity against Candida albicans ATCC 10231; type: toxicity, cell-based; conditions: read-out: Selectivity Index
Cell membrane = assay: Induction of cell membrane damage in Candida albicans ATCC 10231 at 2 to 4 times MIC by propidium iodide staining based fluorescence assay
Candida albicans [4] = assay: Fungistatic activity against Candida albicans ATCC 10231 assessed as reduction in fungal growth at 2 to 4 times MIC incubated for 36 hrs by Time kill assay; type: functional, organism-based; conditions: DDE = dose-dependent effect
[5] = Cytotoxicity against human HUVEC cells assessed as reduction in cell viability by CCK-8 assay; type: toxicity, cell-based
[6] = Metabolic stability in mouse plasma assessed as parent compound remaining at 2 to 8 times; type: ADME, cell-free
Candida albicans [7] = assay: Antibiofilm activity against Candida albicans ATCC 10231 assessed as inhibition of biofilm viability by XTT reduction assay; type: functional, organism-based
Candida albicans [8] = assay: Fungistatic activity against Candida albicans ATCC 10231 assessed as reduction in fungal growth at 4 times MIC incubated for 12 hrs by Time kill assay; type: functional, organism-based

MIC (Candida tropicalis) | MIC (Cryptococcus neoformans) | MIC (Candida albicans [1]) | MIC (Aspergillus fumigatus) | Stability [6] | Structure (SMILES) | MIC (Candida albicans [2]) | selectivity ratio [3] | Activity (Cell membrane) | Activity (Candida albicans [4]) | CC50 [5] | Activity (Candida albicans [7]) | Activity (Candida albicans [8])
16 µg/mL | 4 µg/mL | 8 µg/mL | 16 µg/mL |  | Cc1ccc(Nc2cc(-c3cccs3)nc3ccccc23)cc1.Cl |  |  |  |  |  |  | 
16 µg/mL | 32 µg/mL | 16 µg/mL | > 512 µg/mL |  | Cc1ccc(Nc2cc(C3CCCCC3)nc3ccccc23)cc1.Cl |  |  |  |  |  |  | 
256 µg/mL | 256 µg/mL | 256 µg/mL | 128 µg/mL |  | Cc1ccc(Nc2cc(C)nc3ccccc23)cc1.Cl |  |  |  |  |  |  | 
512 µg/mL (≈ 1450 µM) | 64 µg/mL (≈ 182 µM) | 512 µg/mL (≈ 1450 µM) | 512 µg/mL (≈ 1450 µM) |  | CCN(c1ccc(C)cc1)c1cc(-c2cccc(C)c2)nc2ccccc12 |  |  |  |  |  |  | 
128 µg/mL | 32 µg/mL | 64 µg/mL | > 512 µg/mL |  | Cc1ccc(Nc2cc(-c3ccc(Cl)cc3)nc3ccccc23)cc1.Cl |  |  |  |  |  |  | 
> 512 µg/mL | 16 µg/mL | > 512 µg/mL | > 512 µg/mL |  | Cc1ccc(Nc2cc(-c3ccc(C(F)(F)F)cc3)nc3ccccc23)cc1.Cl |  |  |  |  |  |  | 
32 µg/mL | 32 µg/mL | 32 µg/mL | 64 µg/mL |  | Cc1ccc(Nc2cc(-c3ccccc3)nc3ccccc23)cc1.Cl |  |  |  |  |  |  | 
> 512 µg/mL | 512 µg/mL | > 512 µg/mL | > 512 µg/mL |  | Cc1ccc(Nc2cc(-c3ccc(Br)cc3)nc3ccccc23)cc1.Cl |  |  |  |  |  |  | 
256 µg/mL (≈ 695 µM) | 16 µg/mL (≈ 43.4 µM) | > 512 µg/mL | 256 µg/mL (≈ 695 µM) |  | CCN(c1ccc(C)cc1)c1cc(-c2ccccc2OC)nc2ccccc12 |  |  |  |  |  |  | 
128 µg/mL | 32 µg/mL | 128 µg/mL | 512 µg/mL |  | Cc1ccc(Nc2cc(C3CC3)nc3ccccc23)cc1.Cl |  |  |  |  |  |  | 
256 µg/mL | > 512 µg/mL | 512 µg/mL | > 512 µg/mL |  | Cc1ccc(Nc2cc(-c3cccnc3)nc3ccccc23)cc1.Cl |  |  |  |  |  |  | 
512 µg/mL | 512 µg/mL | > 512 µg/mL | > 512 µg/mL |  | Cc1ccc(Nc2cc(-c3cccc(C(F)(F)F)c3)nc3ccccc23)cc1.Cl |  |  |  |  |  |  | 
64 µg/mL | 64 µg/mL | 128 µg/mL | 64 µg/mL |  | Cc1ccc(Nc2cc(C3CCC3)nc3ccccc23)cc1.Cl |  |  |  |  |  |  | 
256 µg/mL | 4 µg/mL | > 512 µg/mL | 128 µg/mL |  | Cc1ccc(Nc2cc(-c3ccccc3C(F)(F)F)nc3ccccc23)cc1.Cl |  |  |  |  |  |  | 
> 512 µg/mL | > 512 µg/mL | > 512 µg/mL | > 512 µg/mL |  | Cc1ccc(Nc2cc(-c3ccccc3F)nc3ccccc23)cc1.Cl |  |  |  |  |  |  | 
32 µg/mL | 32 µg/mL | 32 µg/mL | 8 µg/mL |  | COc1ccccc1-c1cc(Nc2ccc(C)cc2)c2ccccc2n1.Cl |  |  |  |  |  |  | 
32 µg/mL | 4 µg/mL | 32 µg/mL | 2 µg/mL |  | Cc1ccc(Nc2cc(-c3ccc(C(C)(C)C)cc3)nc3ccccc23)cc1.Cl |  |  |  |  |  |  | 

MIC (Candida tropicalis) | MIC (Cryptococcus neoformans) | MIC (Candida albicans [1]) | MIC (Aspergillus fumigatus) | Stability [6] | Structure (SMILES) | MIC (Candida albicans [2]) | selectivity ratio [3] | Activity (Cell membrane) | Activity (Candida albicans [4]) | CC50 [5] | Activity (Candida albicans [7]) | Activity (Candida albicans [8])
> 512 µg/mL | > 512 µg/mL | > 512 µg/mL | > 512 µg/mL |  | Cc1ccc(Nc2cc(-c3cccc(Cl)c3)nc3ccccc23)cc1.Cl |  |  |  |  |  |  | 
> 512 µg/mL | > 512 µg/mL | > 512 µg/mL | > 512 µg/mL |  | Cc1ccc(Nc2cc(-c3cccc(Br)c3)nc3ccccc23)cc1.Cl |  |  |  |  |  |  | 
> 512 µg/mL | > 512 µg/mL | > 512 µg/mL | > 512 µg/mL |  | Cc1ccc(Nc2cc(-c3ccc(F)cc3)nc3ccccc23)cc1.Cl |  |  |  |  |  |  | 
256 µg/mL | 4 µg/mL | 128 µg/mL | 64 µg/mL |  | Cc1ccc(Nc2cc(-c3ccc4ccccc4c3)nc3ccccc23)cc1.Cl |  |  |  |  |  |  | 
512 µg/mL | 256 µg/mL | 256 µg/mL | 128 µg/mL |  | Cc1ccc(Nc2ccnc3ccccc23)cc1.Cl |  |  |  |  |  |  | 
16 µg/mL | 32 µg/mL | 32 µg/mL | 128 µg/mL |  | Cc1ccc(Nc2cc(-c3ccco3)nc3ccccc23)cc1.Cl |  |  |  |  |  |  | 
> 512 µg/mL | 128 µg/mL (≈ 363 µM) | > 512 µg/mL | 512 µg/mL (≈ 1450 µM) |  | CCN(c1ccc(C)cc1)c1cc(-c2ccc(C)cc2)nc2ccccc12 |  |  |  |  |  |  | 
64 µg/mL | 8 µg/mL | > 512 µg/mL | 512 µg/mL |  | Cc1ccc(Nc2cc(-c3ccccc3Cl)nc3ccccc23)cc1.Cl |  |  |  |  |  |  | 
32 µg/mL | 64 µg/mL | 64 µg/mL | 16 µg/mL |  | Cc1ccc(Nc2cc(C3CCCC3)nc3ccccc23)cc1.Cl |  |  |  |  |  |  | 
> 512 µg/mL | > 512 µg/mL | > 512 µg/mL | > 512 µg/mL |  | Cc1ccc(Nc2nc(-c3ccccc3)nc3ccccc23)cc1.Cl |  |  |  |  |  |  | 
> 512 µg/mL | > 512 µg/mL | > 512 µg/mL | > 512 µg/mL |  | Cc1ccc(Nc2cc(-c3cccc(F)c3)nc3ccccc23)cc1.Cl |  |  |  |  |  |  | 
16 µg/mL | 8 µg/mL | 16 µg/mL | 8 µg/mL |  | COc1ccc(-c2cc(Nc3ccc(C)cc3)c3ccccc3n2)cc1.Cl |  |  |  |  |  |  | 
128 µg/mL | 8 µg/mL | > 512 µg/mL | 64 µg/mL |  | Cc1ccc(Nc2cc(-c3ccccc3Br)nc3ccccc23)cc1.Cl |  |  |  |  |  |  | 
16 µg/mL | 8 µg/mL | 8 µg/mL | 4 µg/mL | 80% | Cc1ccc(Nc2cc(-c3ccc(C)cc3)nc3ccccc23)cc1.Cl |  | 1.63 |  | Dde | 36 µM | Active | Active
32 µg/mL | 128 µg/mL | 8 µg/mL | 128 µg/mL |  | Cc1ccc(Nc2cc(-c3cccc(C)c3)nc3ccccc23)cc1.Cl |  |  |  |  |  |  | 
32 µg/mL | 32 µg/mL | 16 µg/mL | 32 µg/mL |  | Cc1ccc(Nc2cc(-c3ccccc3C)nc3ccccc23)cc1.Cl |  |  |  |  |  |  | 
16 µg/mL | 16 µg/mL | 8 µg/mL | 32 µg/mL |  | COc1cccc(-c2cc(Nc3ccc(C)cc3)c3ccccc3n2)c1.Cl |  |  |  |  |  |  | 

Structure (SMILES) | MIC (Candida tropicalis) | MIC (Cryptococcus neoformans) | MIC (Candida albicans [1]) | MIC (Aspergillus fumigatus) | Stability [6] | MIC (Candida albicans [2]) | selectivity ratio [3] | Activity (Cell membrane) | Activity (Candida albicans [4]) | CC50 [5] | Activity (Candida albicans [7]) | Activity (Candida albicans [8])
C[C@@H]1[C@H](O)[C@@H](C)/C=C/C=C/C=C/C=C/C=C/C=C/C=C/[C@H](O[C@@H]2O[C@H](C)[C@@H](O)[C@H](N)[C@@H]2O)C[C@@H]2O[C@](O)(C[C@@H](O)C[C@@H](O)[C@H](O)CC[C@@H](O)C[C@@H](O)CC(=O)O[C@H]1C)C[C@H](O)[C@H]2C(=O)O [AMPHOTERICIN B] | 4 µg/mL (≈ 4.33 µM) | 1 µg/mL (≈ 1.08 µM) | 1 µg/mL (≈ 1.08 µM) | > 512 µg/mL |  | 128 µg/mL (≈ 139 µM) | 4.55 | Active | Dde | 4.92 µM |  | 

From ChEMBL document CHEMBL5113473, “Synthesis and biological evaluation of new 2‑substituted‑4‑amino-quinolines and -quinazoline as potential antifungal agents” (Bioorg Med Chem Lett, 2022)
